In one assay the test system is DU-145. In words: Growth inhibition of human DU145 cells. In kind it is functional.
Another assay has as its system NCI-H460. In words: Growth inhibition of human NCI-H460 cells. In kind it is functional.
A short description of assay [1]: Induction of rabbit muscle actin polymerization after 1 hr. Also noted: species or system Oryctolagus cuniculus, Muscle tissue.

Converted amounts (≈) assume the structure as drawn. Numbered stars: 1 amine (or outer) side, 2 acyl side, 3 side chain; on linkers, the order of the positions; unused ones are H or OH. Square brackets hold non-standard residues; d marks the D form. Peptide text beside a SMILES is read from it. X1 = CC[C@H](C)[C@H](OC(=O)[C@@H](C)[C@@H](CC)N[*:1])C(=O)[*:2]; X3 = C[C@@H](N[*:1])C(=O)C(C)(C)C(=O)[*:2]; X2 = C[C@H](N[*:1])C(=O)C(C)(C)C(=O)[*:2]; NMeY = CN[C@@H](Cc1ccc(O)cc1)C(=O)O; NMeL = CN[C@@H](CC(C)C)C(=O)O; NMeV = CN[C@H](C(=O)O)C(C)C

As a reminder, the GI50 is the concentration giving 50% growth inhibition. Consider `CC[C@H](C)[C@@H]1OC(=O)[C@@H](C)[C@@H](CC)NC(=O)[C@H](C)NC(=O)C(C)(C)C(=O)[C@@H](C)NC(=O)[C@H](Cc2ccc(OC)cc2)N(C)C(=O)[C@H](C(C)C)N(C)C(=O)CNC(=O)[C@H](CC(C)C)N(C)C(=O)CNC1=O` (cyclo(A[X1]G[NMeL]G[NMeV][NMeY](Me)[X3])), for which the GI50 in the assay with DU-145 amounted to 0.24 µg/mL (≈ 0.244 µM); with NCI-H460, 0.031 µg/mL (≈ 0.0315 µM).

As a reminder, the EC50 is the midpoint of the concentration-response curve. A high value points to lower potency in that assay. As for `CC[C@H](C)[C@@H]1OC(=O)[C@@H](C)[C@@H](CC)NC(=O)[C@H](C)NC(=O)C(C)(C)C(=O)[C@H](C)NC(=O)[C@H](Cc2ccc(OC)cc2)N(C)C(=O)[C@H](C(C)C)N(C)C(=O)CNC(=O)[C@H](CC(C)C)N(C)C(=O)CNC1=O` [DOLASTATIN 11] (cyclo(A[X1]G[NMeL]G[NMeV][NMeY](Me)[X2])), in assay [1], a half-maximal response (EC50) required 9.5 µM. Further, the values for the GI50 in the assay on DU-145 and with NCI-H460 were 0.22 µg/mL (≈ 0.223 µM) and 0.0013 µg/mL (≈ 0.00132 µM), respectively.

The record behind these values is ChEMBL document CHEMBL1150158, “Lyngbyastatin 1 and Ibu-epilyngbyastatin 1: synthesis, stereochemistry, and NMR line broadening” (J Nat Prod, 2002).
